Data reported in US20230219979A1, “PYRAZOLO[1,5-a]PYRIDINE COMPOUND, PREPARATION METHOD THEREFOR AND USE THEREOF” (SHENZHEN ZHONGGE BIOLOGICAL TECHNOLOGY CO., LTD., priority 2019, published 2023).
Like-named read-outs stand apart in the source and are kept apart here.

What was measured:
[1] = target: T1, Ba/F3-KIF5B-RET cell (Homo sapiens, UniProt P07949); assay: CellTiter-Glo luminescence assay, inhibitory activity against Ba/F3-KIF5B-RET cell; assay type: cell-based
T1 construct: fused on or other part: P33176 (Kinesin-1 heavy chain)
Text: (C) In Vitro Screening Experiment - CellTiter-Glo Luminescence Assay for Testing The inhibitory activity of compounds against Ba/F3-KIF5B-RET cell
• 1. The mammalian cell expression vector containing human KIF5B-RET cDNA was introduced into Ba/F3 cells using the Neon® transfection system method, and the surviving clones screened by puromycin were subjected to cell growth inhibitory function experiments and Western blotting to verify cell lines with stable and high expression of RET. • 2. Cells were cultured in RPMI 1640 medium containing 10% fetal bovine serum, 1% penicillin-streptomycin, and 2 µg/mL puromycin, and then placed in a 37° C., 5% carbon dioxide cell incubator. • 3. The test compound (5 mM stock) was diluted 2.5 folds to […] with 100% dimethyl sulfoxide; and the compound was diluted into 10 concentrations at an equal ratio of 1:3 in a 384-well dilution plate. • 4. 0.2 µL of the serially diluted compound was added to a 384-well cell culture plate (Corning, 3570) using an Echo 550 pipetting system, 2 replicate wells for each concentration, and the final concentration of dimethyl sulfoxide was 0.5% (v/v). The gradient concentrations of the test compound were 5000, 1666.7, 555.5, 185.18, 61.72, 20.57, 6.858, 2.286, 0.764, 0.254 nM. • 5. 40 µL of Ba/F3-KIF5B-RET cell suspension containing 800 cells was added to each well, and incubated for 72 h in a 5% CO2 cell incubator. • 6. 20 µL of Cell Titer-Glo reagent was added to each well of the cell culture plate, and the culture system was then shaken and mixed thoroughly for 2 min to lyse the cells, the cells were then incubated at room temperature for 30 min, and the […] signal values were then read with an Envision 2104 microplate reader. • 7. By fitting the data with XLFit 5.0 based on the parameters formula, the IC50 value was calculated as: • [formula]

[2] = target: VEGFR2 kinase (Homo sapiens, UniProt P35968); assay: HTRF method for testing the inhibitory activity of compounds against VEGFR2; assay type: biochemical
[3] = target: Wild-type RET kinase (Homo sapiens, UniProt P07949); assay: HTRF method for testing the inhibitory activity of compounds against RET; assay type: biochemical
[4] = 72 h, read-out: Ba/F3-KIF5B-RET cell activity
[5] = HTRF, read-out: Wild-type RET kinase
[6] = read-out: Ba/F3-KIF5B-RET cell activity, 72 h

Sequence of VEGFR2 kinase (P35968 20-1356): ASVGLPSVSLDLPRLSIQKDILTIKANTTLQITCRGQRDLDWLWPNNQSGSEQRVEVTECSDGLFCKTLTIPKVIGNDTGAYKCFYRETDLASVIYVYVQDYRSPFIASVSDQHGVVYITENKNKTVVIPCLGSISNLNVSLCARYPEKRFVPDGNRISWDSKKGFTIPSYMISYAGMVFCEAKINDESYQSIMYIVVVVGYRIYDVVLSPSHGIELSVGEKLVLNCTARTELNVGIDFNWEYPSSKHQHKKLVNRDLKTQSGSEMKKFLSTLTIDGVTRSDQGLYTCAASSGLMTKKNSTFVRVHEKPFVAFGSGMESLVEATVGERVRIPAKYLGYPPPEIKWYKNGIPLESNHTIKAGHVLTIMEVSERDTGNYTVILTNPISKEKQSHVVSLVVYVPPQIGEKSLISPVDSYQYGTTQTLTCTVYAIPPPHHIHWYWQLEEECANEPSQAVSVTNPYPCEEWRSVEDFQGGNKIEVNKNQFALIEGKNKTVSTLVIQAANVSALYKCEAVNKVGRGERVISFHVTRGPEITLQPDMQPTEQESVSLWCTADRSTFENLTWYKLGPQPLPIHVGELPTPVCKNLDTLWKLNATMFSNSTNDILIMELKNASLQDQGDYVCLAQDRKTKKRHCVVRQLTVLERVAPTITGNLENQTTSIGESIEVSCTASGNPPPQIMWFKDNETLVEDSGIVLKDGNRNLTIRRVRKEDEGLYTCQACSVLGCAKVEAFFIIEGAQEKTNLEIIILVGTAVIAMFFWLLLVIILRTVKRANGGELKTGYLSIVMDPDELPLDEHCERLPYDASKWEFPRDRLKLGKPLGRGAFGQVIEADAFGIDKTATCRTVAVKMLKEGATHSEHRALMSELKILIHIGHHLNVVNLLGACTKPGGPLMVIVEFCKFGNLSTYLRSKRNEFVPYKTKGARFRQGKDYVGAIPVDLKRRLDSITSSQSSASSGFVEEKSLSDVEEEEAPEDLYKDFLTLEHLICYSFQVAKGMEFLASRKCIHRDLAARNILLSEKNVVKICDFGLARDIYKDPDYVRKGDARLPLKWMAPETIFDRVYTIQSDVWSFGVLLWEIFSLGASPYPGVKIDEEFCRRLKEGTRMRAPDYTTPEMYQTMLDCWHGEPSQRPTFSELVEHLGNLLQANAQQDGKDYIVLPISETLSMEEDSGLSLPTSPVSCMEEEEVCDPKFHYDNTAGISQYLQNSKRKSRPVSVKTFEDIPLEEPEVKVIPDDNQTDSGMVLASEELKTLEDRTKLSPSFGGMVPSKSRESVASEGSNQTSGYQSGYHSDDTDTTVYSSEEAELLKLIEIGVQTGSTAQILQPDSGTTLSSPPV
T1 sequence (P07949 whole entry, stated change not applied, the tested form may be a part): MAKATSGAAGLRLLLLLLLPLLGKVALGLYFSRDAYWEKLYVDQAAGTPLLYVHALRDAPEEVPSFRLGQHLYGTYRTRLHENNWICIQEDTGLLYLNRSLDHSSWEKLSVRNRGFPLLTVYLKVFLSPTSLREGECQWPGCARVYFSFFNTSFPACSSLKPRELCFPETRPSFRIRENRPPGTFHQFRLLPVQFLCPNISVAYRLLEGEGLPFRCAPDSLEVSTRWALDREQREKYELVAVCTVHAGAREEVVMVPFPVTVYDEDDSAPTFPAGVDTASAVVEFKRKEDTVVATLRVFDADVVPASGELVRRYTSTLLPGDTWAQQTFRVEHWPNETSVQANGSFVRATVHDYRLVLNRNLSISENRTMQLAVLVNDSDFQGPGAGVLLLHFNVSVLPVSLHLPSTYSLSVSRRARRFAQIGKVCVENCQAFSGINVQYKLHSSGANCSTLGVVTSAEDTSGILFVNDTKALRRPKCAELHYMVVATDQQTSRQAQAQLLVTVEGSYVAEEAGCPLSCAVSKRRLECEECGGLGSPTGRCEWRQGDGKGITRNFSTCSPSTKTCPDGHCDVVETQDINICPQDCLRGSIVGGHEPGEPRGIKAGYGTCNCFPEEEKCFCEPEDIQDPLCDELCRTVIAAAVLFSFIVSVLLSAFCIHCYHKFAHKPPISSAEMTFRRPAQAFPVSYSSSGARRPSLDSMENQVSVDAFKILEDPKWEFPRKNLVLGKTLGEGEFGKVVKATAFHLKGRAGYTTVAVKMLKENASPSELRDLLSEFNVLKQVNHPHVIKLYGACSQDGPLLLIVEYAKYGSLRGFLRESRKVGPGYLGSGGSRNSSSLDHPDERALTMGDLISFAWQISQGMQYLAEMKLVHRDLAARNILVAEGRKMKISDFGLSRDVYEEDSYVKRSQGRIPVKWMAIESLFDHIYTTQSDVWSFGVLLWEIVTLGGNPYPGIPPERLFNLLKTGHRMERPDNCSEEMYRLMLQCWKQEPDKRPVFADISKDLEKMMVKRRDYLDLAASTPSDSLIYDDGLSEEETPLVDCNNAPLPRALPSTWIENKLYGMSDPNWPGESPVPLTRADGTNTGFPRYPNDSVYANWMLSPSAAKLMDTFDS
Sequence of Wild-type RET kinase (P07949 29-1114): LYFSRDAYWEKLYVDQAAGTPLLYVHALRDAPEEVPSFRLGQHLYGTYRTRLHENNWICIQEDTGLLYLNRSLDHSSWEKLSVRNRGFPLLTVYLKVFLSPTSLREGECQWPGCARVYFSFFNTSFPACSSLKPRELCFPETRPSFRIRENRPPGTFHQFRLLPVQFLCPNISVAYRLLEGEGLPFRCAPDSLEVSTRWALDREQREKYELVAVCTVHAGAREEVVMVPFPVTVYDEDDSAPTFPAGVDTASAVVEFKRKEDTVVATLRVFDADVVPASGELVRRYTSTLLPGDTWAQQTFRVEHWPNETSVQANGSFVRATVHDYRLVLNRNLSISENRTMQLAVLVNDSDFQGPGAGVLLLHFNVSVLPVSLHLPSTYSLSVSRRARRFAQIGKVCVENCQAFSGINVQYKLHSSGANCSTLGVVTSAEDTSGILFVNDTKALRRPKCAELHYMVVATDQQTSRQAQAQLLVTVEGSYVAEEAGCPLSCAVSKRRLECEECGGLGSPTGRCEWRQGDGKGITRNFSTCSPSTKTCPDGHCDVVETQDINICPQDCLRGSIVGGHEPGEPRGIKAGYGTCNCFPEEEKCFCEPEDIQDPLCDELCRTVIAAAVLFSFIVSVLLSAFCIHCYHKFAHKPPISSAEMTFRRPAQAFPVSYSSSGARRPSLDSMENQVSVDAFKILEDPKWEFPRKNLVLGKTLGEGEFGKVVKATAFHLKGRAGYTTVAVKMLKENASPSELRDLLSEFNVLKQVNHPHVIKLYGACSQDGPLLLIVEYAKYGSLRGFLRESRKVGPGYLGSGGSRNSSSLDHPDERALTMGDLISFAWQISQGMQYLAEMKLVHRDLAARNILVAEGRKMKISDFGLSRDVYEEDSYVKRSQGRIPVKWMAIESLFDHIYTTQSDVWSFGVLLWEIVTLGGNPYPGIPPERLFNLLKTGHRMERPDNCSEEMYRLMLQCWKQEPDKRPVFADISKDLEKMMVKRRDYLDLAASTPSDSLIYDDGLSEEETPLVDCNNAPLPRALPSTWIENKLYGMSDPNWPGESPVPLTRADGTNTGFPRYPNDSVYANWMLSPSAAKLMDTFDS

Structure (SMILES) | GI50 [1, 4] [µM] | IC50 [2] [µM] | IC50 [3, 5] [µM] | GI50 [1, 6] [µM] | IC50 [3] [µM]
COc1ccc(CN2C3CC2CN(c2ccc(-c4cc(N(C)CCN(C)C)cn5ncc(C#N)c45)cn2)C3)cn1 [Compound 61] | 0.0604 | 0.482 | 0.0011 |  | 
COc1ccc(CN2CCN(c3ccc(-c4cc(OCCN5CC6CCC5C6)cn5ncc(C#N)c45)cn3)CC2)cn1 (stereo not drawn) [Compound 15, 6-(2-(2-azabicyclo[2.2.1]hept-2-yl)ethoxy)-4-(6-(4-((6-methoxypyridin-3-yl)methyl)piperazin-1-yl)pyridin-3-yl)pyrazolo[1,5-a]pyridine-3-carbonitrile] | 0.225 |  | 0.0014 |  | 
COc1ccc(CN2C3CC2CN(c2cnc(-c4cc(OC(=O)N5CCN(C)CC5)cn5ncc(C#N)c45)cn2)C3)cn1 [Compound 26, 3-cyano-4-(5-(6-((6-methoxypyridin-3-yl)methyl)-3,6-diazabicyclo[3.1.1]heptan-3-yl)pyrazin)pyrazolo[1,5-a]pyridin-6-yl 4-methylpiperazine-1-carboxylate] |  |  |  | 0.0642 | 0.0127
COc1ccc(CN2C3CC2CN(c2ccc(-c4cc(NCC(=O)N(C)C)cn5ncc(C#N)c45)cn2)C3)cn1 [Compound 59, 2-((3-cyano-4-(6-(6-((6-methoxypyridin-3-yl)methyl)-3,6-diazabicyclo[3.1.1]heptan-3-yl)pyridin-3-yl)pyrazolo[1,5-a]pyridin-6-yl)amino)-N,N-dimethylacetamide] | 0.0119 | 0.0938 | 0.00169 |  | 
COc1ccc(CN2C3CC2CN(c2ccc(-c4cc(NCCO)cn5ncc(C#N)c45)cn2)C3)cn1 [Compound 51, 6-((2-hydroxyethyl)amino)-4-(6-(6-((6-methoxypyridin-3-yl)methyl)-3,6-diazabicyclo[3.1.1]hept-3-yl)pyridin-3-yl)pyrazolo[1,5-a]pyridine-3-carbonitrile] |  | 0.0193 | 0.00022 |  | 
COc1ccc(CN2C3CC2CN(c2cnc(-c4cc(OC(=O)NC(C)C)cn5ncc(C#N)c45)cn2)C3)cn1 [Compound 41, 3-cyano-4-(5-(6-((6-methoxypyridin-3-yl)methyl)-3,6-diazabicyclo[3.1.1]heptan-3-yl)pyrazin-2-yl)pyrazolo[1,5-a]pyridin-6-ylisopropylcarbamate] |  |  |  | 0.266 | 0.0062
COc1ccc(CN2CCN(c3ccc(-c4cc(OCCN5CC6(COC6)C5)cn5ncc(C#N)c45)cn3)CC2)cn1 [Compound 13, 6-(2-(2-oxa-6-azaspiro[3.3]hept-6-yl)ethoxy)-4-(6-(4-((6-methoxypyridin-3-yl)methyl)piperazin-1-yl)pyridin-3-yl)pyrazolo[1,5-a]pyridine-3-carbonitrile] | 0.224 |  | 0.0008 |  | 
COc1ccc(CN2C3CC2CN(c2cnc(-c4cc(NCc5ccccn5)cn5ncc(C#N)c45)cn2)C3)cn1 [Compound 28, 4-(5-(6-((6-methoxypyridin-3-yl)methyl)-3,6-diazabicyclo[3.1.1]heptan-3-yl)pyrazin-2-yl)-6-((pyridin-2-ylmethyl)amino)pyrazolo[1,5-a]pyridine-3-carbonitrile] | 0.0126 |  | 0.0013 |  | 
COc1ccc(CN2CCN(c3ccc(-c4cc(OCCN5CCC6(CCOCC6)CC5)cn5ncc(C#N)c45)cn3)CC2)cn1 [Compound 14, 6-(2-(3-oxa-9-azaspiro[5.5]undec-9-yl)ethoxy)-4-(6-(4-((6-methoxypyridine-3-yl)methyl)piperazin-1-yl)pyridin-3-yl)pyrazolo[1,5-a]pyridine-3-carbonitrile] | 0.26 |  | 0.0016 |  | 
COc1ccc(CN2CCN(c3ccc(-c4cc(-c5cnn(C)c5)cn5ncc(C(N)=O)c45)cn3)CC2)cn1 [Compound 8, 4-(6-(4-((6-methoxypyridin-3-yl)methyl)piperazin-1-yl)pyridin-3-yl)-6-(1-methyl-1H-pyrazol-4-yl)pyrazolo[1,5-a]pyridine-3-carboxamide] |  | ≥ 5 | 0.25 |  | 
COc1ccc(CN2C3CC2CN(c2cnc(-c4cc(OCCN5CCC6(CCCNC6=O)CC5)cn5ncc(C#N)c45)cn2)C3)cn1 [Compound 35, 4-(5-(6-((6-methoxypyridin-3-yl)methyl)-3,6-diazabicyclo[3.1.1]heptan-3-yl)pyrazin-2-yl)-6-(2-(-1-oxo-2,9-diazaspiro[5.5]undecan-9-yl)ethoxy)pyrazolo[1,5-a]pyridine-3-carbonitrile] | 0.0815 |  | 0.00308 |  | 

Continued, in another order:

GI50 [1, 4] [µM] | IC50 [2] [µM] | IC50 [3, 5] [µM] | Structure (SMILES) | GI50 [1, 6] [µM] | IC50 [3] [µM]
1.13 |  | 0.00135 | COc1ccc(CN2C3CC2CN(c2cnc(-c4cc(OCCN5CCCC56CNC6)cn5ncc(C#N)c45)cn2)C3)cn1 [Compound 23, 6-(2-(2,5-diazaspiro[3.4]octan-5-yl)ethoxy)-4-(5-(6-((6-methoxypyridin-3-yl)methyl)-3,6-diazabicyclo[3.1.1]heptan-3-yl)pyrazin-2-yl)pyrazolo[1,5-a]pyridine-3-carbonitrile] |  | 
0.0634 |  | 0.00398 | COc1ccc(CN2C3CC2CN(c2cnc(-c4cc(OCCN5CCC6(CC5)COC6)cn5ncc(C#N)c45)cn2)C3)cn1 [Compound 30, 6-(2-(2-oxa-7-azaspiro[3.5]non-7-yl)ethoxy)-4-(5-(6-((6-methoxypyridin-3-yl)methyl)-3,6-diazabicyclo[3.1.1]heptan-3-yl)pyrazin-2-yl)pyrazolo[1,5-a]pyridine-3-carbonitrile] |  | 
 | 0.801 | 0.0057 | COc1ccc(CN2C3CC2CN(c2cnc(-c4cc(OCCN5CCC6(CCOCC6)CC5)cn5ncc(C#N)c45)cn2)C3)cn1 [Compound 37, 6-(2-(3-oxa-9-azaspiro[5.5]undec-9-yl)ethoxy)-4-(5-(6-((6-methoxypyridin-3-yl)methyl)-3,6-diazabicyclo[3.1.1]heptan-3-yl)pyrazin-2-yl)pyrazolo[1,5-a]pyridine-3-carbonitrile] |  | 
0.0051 |  | 0.0014 | COc1ccc(CN2C3CC2CN(c2cnc(-c4cc(OCCN5C6CCC5COC6)cn5ncc(C#N)c45)cn2)C3)cn1 [Compound 31, 6-(2-(3-oxa-8-azabicyclo[3.2.1]oct-8-yl)ethoxy)-4-(5-(6-((6-methoxypyridine-3-yl)methyl)-3,6diazabicyclo[3.1.1]heptan-3-yl)pyrazin-2-yl)pyrazolo[1,5-a]pyridine-3-carbonitrile] |  | 
0.0213 |  | 0.00219 | COc1ccc(CN2C3CC2CN(c2cnc(-c4cc(OCCN5CCC6(CCCCC6)CC5)cn5ncc(C#N)c45)cn2)C3)cn1 [Compound 24, 6-(2-(3-azaspiro[5.5]undecane-3-yl)ethoxy)-4-(5-(6-((6-methoxypyridin-3-yl)methyl)-3,6diazabicyclo[3.1.1]heptan-3-yl)pyrazin-2-yl)pyrazolo[1,5-a]pyridine-3-carbonitrile] |  | 
0.026 |  | 0.00573 | COc1ccc(CN2C3CC2CN(c2cnc(-c4cc(OCCN5CC6(CCCOC6)C5)cn5ncc(C#N)c45)cn2)C3)cn1 [Compound 33, 6-(2-(6-oxa-2-azaspiro[3.5]non-2-yl)ethoxy)-4-(5-(6-((6-methoxypyridin-3-yl)methyl)-3,6-diazabicyclo[3.1.1]heptan-3-yl)pyrazin-2-yl)pyrazolo[1,5-a]pyridine-3-carbonitrile] |  | 
0.0833 |  | 0.00414 | COc1ccc(CN2C3CC2CN(c2cnc(-c4cc(OCCN5CCC6(CC5)CC(=O)N6)cn5ncc(C#N)c45)cn2)C3)cn1 [Compound 32, 4-(5-(6-((6-methoxypyridin-3-yl)methyl)-3,6-diazabicyclo[3.1.1]heptan-3-yl)pyrazin-2-yl)-6-(2-(2-oxo-1,7-diazaspiro[3.5]non-7-yl)ethoxy)pyrazolo[1,5-a]pyridine-3-carbonitrile] |  | 
0.151 |  | 0.00124 | COc1ccc(CN2C3CC2CN(c2cnc(-c4cc(OCCN5CC6CC(C5)N6)cn5ncc(C#N)c45)cn2)C3)cn1 [Compound 22, 6-(2-(3,6-diazabicyclo[3.1.1]heptan-3-yl)ethoxy)-4-(5-(6-((6-methoxypyridine-3-yl)methyl)-3,6-diazabicyclo[3.1.1]heptan-3-yl)pyrazin-2-yl)pyrazolo[1,5-a]pyridine-3-carbonitrile] |  | 
0.0611 |  | 0.00032 | COc1ccc(CN2C3CC2CN(c2cnc(-c4cc(OCCN5CC6CCCNC6C5)cn5ncc(C#N)c45)cn2)C3)cn1 (stereo not drawn) [Compound 17, 4-(5-(6-((6-methoxypyridin-3-yl)methyl)-3,6-diazabicyclo[3.1.1]hept-3-yl)pyrazin-2-yl)-6-(2-(octahydro-6H-pyrrole[3,4-b]pyridin-6-yl)ethoxy)pyrazolo[1,5-a]pyridine-3-carbonitrile] |  | 
